Laboratory results reported in the NIST ThermoML archive (doi:10.1016/j.fluid.2014.10.029).

Conditions: for mass density: 101.33 kPa, Liquid, Buoyancy - hydrostatic balance with magnetic suspension - one sinker

CCCCn1cc[n+](C)c1C.F[P-](F)(F)(F)(F)F [1-butyl-2,3-dimethylimidazolium hexafluorophosphate]
Wilhelmy plate
Conditions	surface tension liquid-gas [mN/m]
298.17 K	44.42
313.07 K	43.73
323.27 K	43.16
333.13 K	42.6
338.38 K	42.38
343.51 K	42.13
348.43 K	41.89
353.08 K	41.68
358.76 K	41.41
364.84 K	41.11

CCCC[n+]1cccc(C)c1.F[P-](F)(F)(F)(F)F [1-butyl-3-methylpyridinium hexafluorophosphate]
Wilhelmy plate
Conditions	surface tension liquid-gas [mN/m]
323.02 K	43.24
327.6 K	42.96
333.18 K	42.58
338.24 K	42.24
343.75 K	41.89
348.09 K	41.63
353.61 K	41.3
358.09 K	40.94
364.84 K	40.51

CCCCCCCn1cc[n+](C)c1.F[P-](F)(F)(F)(F)F [1-heptyl-3-methylimidazolium hexafluorophosphate]
Conditions	mass density [kg/m3]
292.97 K	1266.43
298.16 K	1262.6
303.16 K	1258.82
308.22 K	1254.84
313.19 K	1250.97
318.05 K	1247.4
323.09 K	1243.43
328.16 K	1239.71
333.36 K	1235.76
337.82 K	1232.14
343.31 K	1228.66
348.05 K	1224.36
352.96 K	1220.98
357.92 K	1217.32
364.45 K	1212.58

surface tension liquid-gas [mN/m]
Conditions	Ring tensiometer	Wilhemly plate
293.23 K	36.05	–
293.26 K	–	36.06
298.15 K	35.87	35.89
303.13 K	35.6	–
303.15 K	–	35.6
308.2 K	35.31	–
308.21 K	–	35.41
313.22 K	–	35.13
313.26 K	35.14	–
318.05 K	–	34.87
318.08 K	34.74	–
323.21 K	34.65	–
323.22 K	–	34.65
328.1 K	–	34.39
328.18 K	34.3	–
333.37 K	34.07	34.13
337.89 K	–	33.91
338.05 K	33.75	–
343.31 K	33.7	–
343.34 K	–	33.68
348.16 K	–	33.32
348.26 K	33.24	–
353.04 K	–	33.18
357.99 K	33.04	–
358.04 K	–	32.96
364.54 K	32.62	–
364.61 K	–	32.67

CCCCCn1cc[n+](C)c1.F[P-](F)(F)(F)(F)F [1-methyl-3-pentylimidazolium hexafluorophosphate]
surface tension liquid-gas [mN/m]
Conditions	Ring tensiometer	Wilhelmy plate
262.89 K	43.04	–
268.06 K	42.78	–
273.2 K	–	42.46
277.73 K	–	42.19
277.78 K	42.23	–
283.1 K	41.97	–
283.17 K	–	41.95
288.28 K	–	41.53
288.29 K	41.76	–
292.81 K	41.54	41.49
298.19 K	–	41.24
298.2 K	41.35	–
303.11 K	40.96	–
303.12 K	–	40.94
308.14 K	–	40.68
308.16 K	40.75	–
313.06 K	40.41	40.4
317.95 K	–	40.17
317.98 K	40.23	–
323.19 K	40.04	–
323.2 K	–	39.86
328.3 K	–	39.63
328.37 K	39.69	–
333.51 K	39.41	–
333.52 K	–	39.36
338.58 K	39.09	–
338.6 K	–	39.1
342.99 K	38.8	–
343 K	–	38.86
348.07 K	38.64	–
348.11 K	–	38.64
353.27 K	38.38	–
353.3 K	–	38.4
357.97 K	–	38.11
358.34 K	38.1	–
362.98 K	–	37.85

Conditions	mass density [kg/m3]
267.86 K	1351.91
273.05 K	1348.4
283.12 K	1339.58
288.38 K	1335.51
292.83 K	1332.19
298.17 K	1328.15
303.2 K	1324.24
308.22 K	1318.91
313.1 K	1315.32
317.98 K	1311.51
323.18 K	1307.37
328.4 K	1303.77
333.5 K	1299.9
338.86 K	1295.93
342.93 K	1292.1
348 K	1288.64
353.25 K	1284.49
358.27 K	1281.15
362.73 K	1277.18

CCCn1cc[n+](C)c1.F[P-](F)(F)(F)(F)F [1-methyl-3-propylimidazolium hexafluorophosphate]
surface tension liquid-gas [mN/m]
Conditions	Ring tensiometer	Wilhelmy plate
293.21 K	–	48.34
293.23 K	47.98	–
298.2 K	–	47.99
298.23 K	47.77	–
303.01 K	–	47.68
303.04 K	48.03	–
308.2 K	–	47.36
308.21 K	47.15	–
313.17 K	–	47.06
313.22 K	47.18	–
318.07 K	–	46.74
318.17 K	46.99	–
323.11 K	–	46.4
323.22 K	46.76	–
328.22 K	46.09	–
328.25 K	–	46.06
333.39 K	45.83	–
333.45 K	–	45.73
338.46 K	45.38	45.41
343.28 K	44.84	–
343.3 K	–	45.14
348.2 K	44.8	–
348.25 K	–	44.78
352.68 K	–	44.5
352.76 K	44.38	–
358.22 K	43.88	–
358.24 K	–	44.23
364.96 K	–	43.78
365.07 K	43.64	–

CCCCCCCCCn1cc[n+](C)c1.F[P-](F)(F)(F)(F)F [1-nonyl-3-methylimidazolium hexafluorophosphate]
surface tension liquid-gas [mN/m]
Conditions	Ring tensiometer	Wilhelmy plate
288.14 K	–	33.2
288.18 K	33.64	–
293.07 K	33.26	32.96
298.13 K	32.86	–
298.16 K	–	32.7
303.11 K	–	32.48
303.12 K	32.8	–
308.11 K	–	32.27
308.13 K	32.71	–
313.16 K	–	31.99
313.19 K	32.4	–
318.03 K	–	31.76
318.06 K	32.17	–
323.07 K	–	31.51
323.1 K	31.89	–
328 K	31.7	–
328.04 K	–	31.25
332.93 K	31.43	–
332.95 K	–	30.99
338.37 K	–	30.75
338.49 K	31.11	–
343.34 K	–	30.5
343.59 K	30.88	–
347.87 K	–	30.23
347.9 K	30.57	–
352.81 K	–	29.98
352.87 K	30.32	–
357.85 K	–	29.76
358.12 K	30.14	–
365.11 K	29.71	–
365.22 K	–	29.4

Conditions	mass density [kg/m3]
293.11 K	1216.29
298.18 K	1212.6
303.15 K	1209.57
308.14 K	1205.42
313.21 K	1201.39
318.08 K	1197.66
323.13 K	1193.94
328.02 K	1190.39
332.95 K	1186.82
338.45 K	1183.02
343.45 K	1179.31
348.02 K	1176.28
352.94 K	1172.76
358.11 K	1168.91
365.13 K	1163.68
